The values that follow come from patent publication US20060194835A1, “Compositions and methods for treating or preventing flaviviridae infections” (priority 2005, published 2006).

Where only a bound is given, the exact number is not on record here.

Data set [1] has as its system BVDV. Description: Protection of MDBK cells from BVDV-induced cytopathicity (CPE reduction, MTS/PMS). Format: cell-based, bovine viral diarrhea virus. To be noted: for EC50: 50% CPE reduction; for protection of MDBK cells from BVDV-induced cytopathicity (in words): at the concentrations tested. (Protection from cytopathic effect is a common read-out in antiviral testing.)

A further data set in a line: in vitro. The conditions noted are these: bovine.
The nature of data set [2]: Drug cytotoxicity in uninfected MDBK cells (MTS/PMS). The conditions noted are these: bovine.
Data set [3] concerns BVDV. Description: Double combination checkerboard CPE assay, MacSynergy II and isobolograms. To be noted: at 10 IU/mL interferon-α2b. In kind it is cell-based, bovine viral diarrhea virus. As for the experimental part:
A double combination assay was performed using MDBK cells infected with BVDV in an inhibition of cytopathic effect (CPE) assay as described in Example 2. The double drug combinations were measured by creating a “checkerboard” of drug concentrations used on cell monolayers in microtiter plates, with one drug being titrated horizontally and the other drug titrated vertically, and each double combination being tested at least twice.
The EC50 values of a first test compound derived while in combination with a second test compound were plotted against the corresponding concentration of the second test compound to create an isobole (dose pair). All of the isoboles were plotted in an isobologram to determine the presence of synergy, antagonism or additivity for the combined test compounds. […] The line connecting the monotherapy EC50 values represents the theoretical additivity effect values for the two compounds.
In addition to generating isobolograms, the checkerboard data was imported into MacSynergy™ II software to graph the observed synergy (or additive or antagonism) volumes for the double combinations tested. Briefly, the calculated additive interactions were subtracted from the experimentally determined values to reveal the corresponding drug concentrations at which a synergistic (indicated by positive % values) or antagonistic (indicated by negative % values) effect is observed. The greater the positive percent volume observed, the greater the synergy between the two compounds. […] In contrast, any value about or less than −25 μM^2% or μM(IU/mL) % is indicative of a significant antagonistic effect. The data presented in Table 5 represent volumes of synergy or antagonism with 95% confidence. The confidence level was calculated using a Bonferroni adjustment as a conservative estimate of significance to statistically evaluate the data.

Data set [4] concerns BVDV. Nature of the data set: Triple combination checkerboard CPE assay (celgosivir or castanospermine + interferon-α2b + ribavirin), MacSynergy II. In kind it is cell-based, bovine viral diarrhea virus. To be noted: for EC50: read-out: Average Castanospermine EC50. As for the experimental part:
Each double or triple combination was performed twice. The combination efficacy data were analyzed using the MacSynergy™ II software program as described herein.
Each double or triple combination was performed twice. The combination efficacy data were analyzed using the MacSynergy™ II software program as described herein. The EC50 for each of celgosivir and castanospermine was calculated from the triple combination studies described in Example 6.
Each double or triple combination was performed twice. The combination efficacy data were analyzed using the MacSynergy™ software program as described herein. The EC50 for interferon-α2b was calculated from the triple combination studies described in Example 6.

Data set [5] deals with MDBK cells. Nature of the data set: Drug cytotoxicity in uninfected MDBK cells (MTS/PMS). The conditions noted are these: uninfected MDBK cells.
The subject of another data set is BVDV strain NADL. Description: Inhibition of viral release from BVDV-infected MDBK cells (plaque titer). To be noted: MOI = 1; for EC50: inhibits 50% of viral release; for EC50 / EC90: 24 hours; for EC90: inhibits 90% of viral release.
In data set [6] the test system is MDBK cells. Description: Cytotoxicity of test compound in MDBK cells in the absence of viral infection (Example 1). To be noted: absence of viral infection.
The mark [7] stands for this setting: Bovine viral diarrhea virus isolates and strains, MDBK, MOI 0.05.

Turning to `O=C(N[C@@H](Cc1c[nH]c2ccccc12)C(=O)O)c1ccc2ccn(Cc3ccccc3)c2c1` [2-BAIP, (L)-2-[(1-Benzyl-1H-indole-6-carbonyl)-amino]-3-(1H-indol-3-yl)-propionic acid, reference compound], in the data set with BVDV [1] (setting [7]), the EC50 is above 50 µM. In addition, the “protection of MDBK cells from BVDV-induced cytopathicity (in words)” value in the data set on BVDV [1] was “do not protect”. In the data set “in vitro”, the CC50 is above 50 µM.
Turning to `NC12CC3CC(CC(C3)C1)C2` [Amantadine, amantadine, reference compound], the values for the EC50 with BVDV [1] (MOI 0.05) and in the data set on BVDV [1] (setting [7]) were 357 µM and 476 µM, respectively. For the same molecule, the CC50 in data set [2] is above 1000 µM.
As to `O[C@H]1[C@H](O)[C@@H](O)CN2CC[C@H](O)[C@H]12` [Castanospermine, [1S-(1α,6β,7α,8β,8aβ)]-octahydro-1,6,7,8-indolizinetetrol], the EC50 with BVDV [1] (MOI 0.01, read-out: EC50) is 62 ± 15 µM; in the data set on BVDV [4] (Ribavirin 0 μM, Interferon-α2b 0 IU/mL, listed as castanospermine), around 52 µM; in the data set on BVDV [4] (Ribavirin 0 μM, Interferon-α2b 0 IU/mL), 52.2 ± 9.5 µM; in the data set on BVDV [4] (Ribavirin 0 μM, Interferon-α2b 0.7 IU/mL), 39 ± 13.4 µM; with BVDV [4] (Ribavirin 0 μM, Interferon-α2b 2.2 IU/mL), 18.9 ± 2.1 µM; with BVDV [4] (Ribavirin 0 μM, Interferon-α2b 6.7 IU/mL) it was 11.9 ± 2.5 µM. In addition, the EC50 is below 1.3 µM in the data set with BVDV [4] (Ribavirin 0 μM, Interferon-α2b 20 IU/mL); 34.3 ± 3.4 µM in the data set on BVDV [4] (Ribavirin 0.12 μM, Interferon-α2b 0.7 IU/mL); 23.4 ± 2.4 µM with BVDV [4] (Ribavirin 0.12 μM, Interferon-α2b 2.2 IU/mL); 9.7 ± 4.8 µM in the data set with BVDV [4] (Ribavirin 0.12 μM, Interferon-α2b 6.7 IU/mL); below 1.4 µM in the data set on BVDV [4] (Ribavirin 0.12 μM, Interferon-α2b 20 IU/mL); 27.7 ± 6.3 µM in the data set on BVDV [4] (Ribavirin 0.37 μM, Interferon-α2b 0.7 IU/mL). Besides, the EC50 in the data set on BVDV [4] (Ribavirin 0.37 μM, Interferon-α2b 2.2 IU/mL) was 19.7 ± 5.2 µM; with BVDV [4] (Ribavirin 0.37 μM, Interferon-α2b 6.7 IU/mL) it was 6.5 ± 7.5 µM; in the data set on BVDV [4] (Ribavirin 0.37 μM, Interferon-α2b 20 IU/mL), below 1.5 µM; with BVDV [4] (Ribavirin 1.1 μM, Interferon-α2b 0.7 IU/mL) it was 14 ± 4.5 µM; in the data set on BVDV [4] (Ribavirin 1.1 μM, Interferon-α2b 2.2 IU/mL), 6.9 ± 1 µM; in the data set with BVDV [4] (Ribavirin 1.1 μM, Interferon-α2b 6.7 IU/mL) it was below 1.2 µM. The EC50 in the data set on BVDV [4] (Ribavirin 1.1 μM, Interferon-α2b 20 IU/mL) is below 1.2 µM; in the data set with BVDV [4] (Ribavirin 3.3 μM, Interferon-α2b 0.7 IU/mL) it was below 1.2 µM; in the data set with BVDV [4] (Ribavirin 3.3 μM, Interferon-α2b 2.2 IU/mL), below 1.2 µM; in the data set with BVDV [4] (Ribavirin 3.3 μM, Interferon-α2b 6.7 IU/mL), below 1.2 µM; in the data set on BVDV [4] (Ribavirin 3.3 μM, Interferon-α2b 20 IU/mL), below 1.2 µM; in the data set with BVDV strain NADL, 19.4 ± 8.3 µM. Besides, the “fold reduction of EC50 of castanospermine” value in the data set with BVDV [3] was “more than 7 fold”. In addition, the “dose-dependent reduction in EC50” value in the data set with BVDV [4] (upon the addition of increasing concentrations of interferon-α2b) is “up to 52 fold”. Also, the values for the CC50 in the data set with MDBK cells [5] and in the data set on MDBK cells [6] were above 1000 µM and above 2000 µM, respectively. For the same molecule, the “TI (Therapeutic Index, CC50/EC50)” value with BVDV strain NADL was above 100. The same molecule registered an EC90 in the data set with BVDV strain NADL of 89 ± 21 µM.
Turning to `CCCCN1C[C@H](O)[C@@H](O)[C@H](O)[C@H]1CO` [NB-DNJ, N-butyldeoxynojirimycin, reference compound], the EC50 in the data set on BVDV [1] (MOI 0.05, read-out: EC50) amounted to 459 µM. Further, in the data set with MDBK cells [5], the CC50 is above 500 µM.
Consider `C[C@@]1(O)[C@H](O)[C@@H](CO)O[C@H]1n1ccc(N)nc1=O` [NM-107, 2′-C-methyl cytidine, reference compound], for which the EC50 with BVDV [1] (Bovine viral diarrhea virus isolates and strains, MDBK, MOI 0.01) turned out to be 2.1 ± 0.5 µM. For the same molecule, the CC50 in the data set “in vitro” was found to be 228 µM.
In the case of Interferon-α2b, the results for the EC50 with BVDV [1] (MOI 0.01) and with BVDV strain NADL were 19.4 ± 6 IU/mL and 8.0 ± 6.8 IU/mL, respectively. Also, the “Average Interferon-α2b EC50” value in the data set with BVDV [4] (Castanospermine added 0 μM) is on record as 16 IU/mL; in the data set with BVDV [4] (Castanospermine added 1.2 μM), 18 IU/mL; in the data set on BVDV [4] (Castanospermine added 3.7 μM) it was 13 IU/mL; in the data set on BVDV [4] (Castanospermine added 11 μM) it was 7 IU/mL; in the data set on BVDV [4] (Castanospermine added 33 μM), 1 IU/mL; in the data set on BVDV [4] (Celgosivir added 0 μM) it was 19 IU/mL. The “Average Interferon-α2b EC50” value with BVDV [4] (Celgosivir added 0.25 μM) was 21 IU/mL; in the data set on BVDV [4] (Celgosivir added 0.74 μM), 14 IU/mL; with BVDV [4] (Celgosivir added 2.2 μM) it was 5 IU/mL; in the data set on BVDV [4] (Celgosivir added 6.7 μM), below 1 IU/mL. Besides, the “EC50 of interferon-α2b” value with BVDV [4] (at increased concentration of castanospermine or celgosivir) is given as “less than 1 IU/mL”; in the data set with BVDV [4] (without added castanospermine or celgosivir), “about 20 IU/mL”. Further, the CC50 in the data set with MDBK cells [5] is reported as above 300 IU/mL; in the data set on MDBK cells [6], above 1000 IU/mL. In the data set on BVDV strain NADL, the “TI (Therapeutic Index, CC50/EC50)” value is listed as above 200. The same molecule yielded an EC90 with BVDV strain NADL of 114 ± 92 IU/mL.
Molecule “Interferon-ω: type I interferon, interferon-ω (Cedarlane Laboratories)” showed an EC50 in the data set with BVDV [1] (MOI 0.01) of 37 ± 1.4 IU/mL. In the data set on MDBK cells [5], this molecule displayed a CC50 above 1000 IU/mL.
The matching figures for Peginterferon-α2a: 16.6 ± 11 IU/mL and above 1000 IU/mL.

B1: Interferon-γ: type II interferon (protein, UniProt P01579 24-161, looked up)
Interferon gamma: QDPYVKEAENLKKYFNAGHSDVADNGTLFLGILKNWKEESDRKIMQSQIVSFYFKLFKNFKDDQSIQKSVETIKEDMNVKFFNSNKKKRDDFEKLTNYSVTDLNVQRKAIHELIQVMAELSPAAKTGKRKRSQMLFRG
B1: the EC50 with BVDV [1] (MOI 0.01) is recorded as above 1000 IU/mL. For the same molecule, the “protection of MDBK cells from BVDV-induced cytopathicity (in words)” value in the data set with BVDV [1] was “do not protect”. Also, in the data set with MDBK cells [5], the CC50 is above 1000 IU/mL.
